Reference: US20050054722A1, “Inhibition of two-component signal transduction systems” (Unisearch Limited,, priority 1999, published 2005)

What was measured:
[1] = system: CopS/CopR two component signal transduction system; experiment: CopS/CopR assay (cop'-lacZ, Cu2+-induced); type: cell-based, Pseudomonas syringae pv. syringae; details: for cop'-lacZ expression: 0.075 mM CuSO4, 6.5 hours
Procedure: P. syringae pv syringae PS61 (pCOP38)(pPT23D) was grown on SWM media (Kinscherf and Willis, 1999) at room temperature with shaking for 48 hours. Five μg/ml streptomycin, 15 μg/ml chloramphenicol and 1.0 mM CuSO4 were added to maintain plasmids. This culture was used to inoculate 50 ml SWM media in side-arm flasks with the addition of antibiotics. These cultures were incubated at room temperature with shaking for 16 hours (OD610=0.2) at which point CuSO4 was added to a concentration of 0.075 mM (CuSO4 solution made up in MQ water).
The test compound or mixtures of compounds were dissolved in ethanol and added to cultures to give the required final concentrations. Equal volumes of ethanol were added to Cu^2+ negative and positive cultures. Cultures were incubated for 6.5 hours at room temperature with shaking before being placed on ice. Samples were then removed for β-galactosidase assays. β-galactosidase assays were carried out in the same manner as those for the Taz assay described above.
The effect of furanone compound 3 on the CopS/CopR two component signal transduction system that regulates copper resistance in Pseudomonas syringae pv. syringae (Mills et al., 1993) was assessed. […] However, there appears to be no difference in terms of lacZ expression between the two concentrations (p>0.15).

Streptococcus spp. = experiment: Minimum inhibitory (growth) concentration, Streptococcus spp.; type: cell-based; details: growth curves, OD 610 nm
Procedure: (§1) Growth curve method. Bacteria are grown overnight in standard medium. The following morning, the cells were inoculated into fresh medium at 1% (a 1 in 100 dilution). Furanones were added either at the beginning of growth (time 0) or, as was the case for the B. subtilis experiments, the results of which are shown in FIG. 1, during the mid-logarithmic phase of growth. Growth was then monitored regularly by spectrophotometric readings, at a wavelength of 610 nm. Using the type of growth described above, the minimum growth inhibitory concentration of furanones was determined for S. aureus and Streptococcus spp. were determined for a range of compounds.

Staphylococcus aureus = experiment: Minimum inhibitory (growth) concentration, S. aureus; type: cell-based; details: growth curves, OD 610 nm
Procedure: as §1

HPK NRII = HPK NRII (Escherichia coli, UniProt P0AFB5); details: Hilliard et al. 1999; cited from earlier work
Streptococcus pneumoniae = details: cited from earlier work
S. aureus cells = details: cited from earlier work
S. aureus = details: cited from earlier work
E. faecium = details: cited from earlier work
[2] = system: P. syringae var tomato BB27 swarming (GacS/GacA); experiment: GacS/GacA assay (swarming on 0.4% agar SWM plates); type: cell-based, Pseudomonas syringae var. tomato
Procedure: P. syringae var tomato BB27 was grown overnight in SWM media at room temperature. This culture was used to stab inoculate SWM plates made up with 0.4% agar and incubated at room temperature (20° C.). The culture was also used to stab inoculate sets of SWM plates (0.4% agar) that bad been made up with 25 μg/ml and 50 μg/ml of the test compound (stock solutions made up in ethanol). These plates were also incubated at room temperature for 36 hours before being examined for swarming activity and photographed. Before use all 0.4% agar SWM plates were allowed to air-dry for two hours in a laminar flow cabinet at room temperature.
Furanones interfere with the “swarming” response of Pseudomonas syringae, which is regulated by the GacS/GacA two-component signal transduction system (Kinscherf and Willis, 1999).

[3] = system: Bacillus subtilis strain ATCC 6633 and NCTC 10073; experiment: Growth curves, Bacillus subtilis; type: cell-based; details: compound added at 8-9 hours of growth, FIG. 1
Procedure: The compound was added at 8-9 hours, as denoted by the arrows, after the cultures had been growing. B. subtilis has a two component system that, when deleted, results in lysis and cell death.
as §1, with “nm.” for “nm. Using the type of growth described above, the minimum growth inhibitory concentration of furanones was determined for S. aureus and Streptococcus spp. were determined for a range of compounds.”

Sequence of HPK NRII (P0AFB5 whole entry): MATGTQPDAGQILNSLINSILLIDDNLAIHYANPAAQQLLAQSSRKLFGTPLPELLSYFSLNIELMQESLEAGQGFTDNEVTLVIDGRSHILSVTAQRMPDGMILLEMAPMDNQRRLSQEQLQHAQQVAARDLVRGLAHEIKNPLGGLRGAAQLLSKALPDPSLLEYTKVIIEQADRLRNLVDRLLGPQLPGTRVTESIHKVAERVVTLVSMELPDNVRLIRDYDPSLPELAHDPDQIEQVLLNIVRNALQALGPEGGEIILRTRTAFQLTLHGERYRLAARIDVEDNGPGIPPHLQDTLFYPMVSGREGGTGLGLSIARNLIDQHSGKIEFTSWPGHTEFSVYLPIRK

Q: Which results are given for `CCC[C@@H](O)C1=C(Br)/C(=C/Br)OC1=O` [Compound 4]?
A: normal activity of the CopS/CopR two-component signal transduction system ([1]; concentration not given): appeared to reduce the normal activity; Minimum inhibitory (growth) concentration, Streptococcus spp. (Streptococcus spp.): 10 µg/mL

Q: With `CCCCCC(Br)C1=CC(=C(Br)Br)OC1=O` (centres unmarked) [Compound 34] as the compound, how does the “Minimum inhibitory (growth) concentration, Staphylococcus aureus” value (Staphylococcus aureus) read?
A: 250 ng/mL

Q: What does the source list for `NC(N)=NCCc1ccc(OCCC(c2ccccc2)(c2ccccc2)c2ccccc2)cc1` [RWJ-49815]?
A: autophosphorylation of the HPK NRII (HPK NRII): inhibited the autophosphorylation; active concentration (antibacterial) (Streptococcus pneumoniae): 1 to 2 µg/mL; permeability of the membranes of S. aureus cells (S. aureus cells): caused a rapid increase in the permeability; active concentration (antibacterial) (S. aureus): 1 to 2 µg/mL; active concentration (antibacterial) (E. faecium): 1 to 2 µg/mL

Q: What does the source list for `O=C1C=C(Br)/C(=C/Br)O1` [Compound 30]?
A: Minimum inhibitory (growth) concentration, Staphylococcus aureus (Staphylococcus aureus): 1000 to 20000 ng/mL; swarming response in P. syringae ([2]; concentration not given): inhibited the swarming response; Minimum inhibitory (growth) concentration, Streptococcus spp. (Streptococcus spp.): 10 µg/mL

Q: Which results are given for `CCCCC1=C(Br)/C(=C/Br)OC1=O` [Compound 2]?
A: Minimum inhibitory (growth) concentration, Staphylococcus aureus (Staphylococcus aureus): 1000 to 10000 ng/mL; growth response (optical density) [3]: induction of cell lysis

Q: With `CCC[C@@H](OC(C)=O)C1=C(Br)/C(=C/Br)OC1=O` [Compound 3] as the compound, how does the “cop'-lacZ expression” value ([1]; 25 μg/ml) read?
A: significantly reduced

Q: What about the “cop'-lacZ expression” value ([1]; 50 μg/ml) of the same compound?
A: significantly reduced

Q: And the growth inhibitory effects ([1]; at the concentrations used (25 and 50 μg/ml), P. syringae pv syringae)?
A: did not have any growth inhibitory effects

Q: What about the swarming pattern ([2]; 25 μg/ml, 36 hours) of the same compound?
A: dramatically alters the swarming pattern

Q: What about the “growth of P. syringae var. tomato” value ([2]; 50 μg/ml) of the same compound?
A: did not inhibit the growth

Q: And the swarming ([2]; 50 μg/ml, 36 hours)?
A: shut down swarming

Q: Which “Minimum inhibitory (growth) concentration, Staphylococcus aureus” value (Staphylococcus aureus) does the source give for `CCCCCC(Br)C1=C(Br)/C(=C/Br)OC1=O` (centres unmarked) [Compound 33] here?
A: 500 ng/mL
